The values that follow are results of earlier work, collected in patent US20220273628A1, “EFFECTS OF LYSERGIC ACID DIETHYLAMIDE (LSD) AND OF LSD ANALOGS TO ASSIST PSY[…] G[…] DISORDER OR OTHER ANXIETY NOT RELATED TO LIFE-T[…]” (Universitätsspital Basel, priority 2021, published 2022).

The target of one data set is 5-HT2A receptor (Homo sapiens, UniProt P28223). As to conditions: cited from earlier work.
Data set [1] concerns patients with treatment-resistant depression. As to conditions: 12 patients, cited from earlier work.

Chain of 5-HT2A receptor (P28223 whole entry): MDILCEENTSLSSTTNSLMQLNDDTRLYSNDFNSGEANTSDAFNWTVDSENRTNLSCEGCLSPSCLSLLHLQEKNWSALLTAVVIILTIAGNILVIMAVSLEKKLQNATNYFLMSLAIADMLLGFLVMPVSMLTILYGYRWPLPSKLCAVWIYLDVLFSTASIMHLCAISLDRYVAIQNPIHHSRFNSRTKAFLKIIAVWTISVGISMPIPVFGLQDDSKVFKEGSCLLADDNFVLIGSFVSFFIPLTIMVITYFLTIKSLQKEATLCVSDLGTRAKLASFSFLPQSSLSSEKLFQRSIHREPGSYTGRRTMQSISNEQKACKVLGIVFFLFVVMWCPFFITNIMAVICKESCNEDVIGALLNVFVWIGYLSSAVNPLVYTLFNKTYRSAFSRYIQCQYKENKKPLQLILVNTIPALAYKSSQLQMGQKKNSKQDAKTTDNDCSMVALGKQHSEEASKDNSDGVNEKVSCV

On to `CN(C)CCc1c[nH]c2ccccc12` [DMT, N,N-dimethyltryptamine], for which the “activity at the 5-HT2A receptor” value at 5-HT2A receptor was “agonists”.
Turning to `COc1cc(CCN)cc(OC)c1OC` [mescaline], the “activity at the 5-HT2A receptor” value at 5-HT2A receptor is recorded as “agonists”.
In the case of `CN(C)CCc1c[nH]c2cccc(OP(=O)(O)O)c12` [psilocybin], the “transient anxiety during drug onset” value in data set [1] (10 mg and 25 mg) was “all patients”. Moreover, in data set [1], the “mild and transient nausea” value is on record as “four”; the “transient confusion or thought disorder” value is listed as “nine”; the transient headache entry is “four”.
